Measurements from publication PMC7870075, “Physicochemical properties and formulation development of a novel compound inhibiting Staphylococcus aureus biofilm formation” (PLoS ONE, 2021).
Converted amounts (≈) assume the structure as drawn. “And” between values parts separate entries of the source, which are not always exact repeats. Identical values can stand only once.

Assays:
Solubility in water = type: physicochemical
Protocol: The concentration of CCG-211790 in deionized water or aqueous solutions was determined using an Agilent series 1100 HPLC system (Agilent Technologies, Santa Clara, CA, USA) equipped with diode array detector. Sample separation was carried out with a Kinetex C18 column (75 mm × 3 mm, particle size 2.6 μm, Phenomenex Inc., Torrance, CA, USA). The mobile phase of acetonitrile-water (50:50, v/v) was used for chromatographic separation. The flow rate was set to 0.5 mL/min, column temperature to 35°C. The absorption was measured at wavelength 255 nm. The injection volume was 30 μL. The retention time of CCG-211790 was 4.9 min. The method detection limit was 0.02 mg/L. Calibration curves were established giving a correlation coefficient >0.9900. To determine the solubility of CCG-211790 in water, an excess amount of CCG-211790 powder was added into water. […] The sample aliquots (0.5 mL each) were centrifuged at 20,000 ×g for 5 min with Amicon Ultra-0.5 Centrifugal Filter Units (MWCO 3000 Da, Millipore Corp., Billerica, MA, USA). Solutions passing through the filter were diluted 2-fold with acetonitrile and CCG-211790 concentration in water was determined by HPLC analysis. The experiment was run in triplicate with mean values and standard deviations being reported.

[1] = Solubility in water containing sodium dodecyl sulfate (SDS); type: physicochemical; settings: aqueous with cosolvent or surfactant or cyclodextrin, thermodynamic from solid, 37°C; for solubility at 24 h / solubility at 48 h: 200 rpm; for solubility: mean of 24 and 48 h
Protocol: The concentration of CCG-211790 in deionized water or aqueous solutions was determined using an Agilent series 1100 HPLC system (Agilent Technologies, Santa Clara, CA, USA) equipped with diode array detector. Sample separation was carried out with a Kinetex C18 column (75 mm × 3 mm, particle size 2.6 μm, Phenomenex Inc., Torrance, CA, USA). The mobile phase of acetonitrile-water (50:50, v/v) was used for chromatographic separation. The flow rate was set to 0.5 mL/min, column temperature to 35°C. The absorption was measured at wavelength 255 nm. The injection volume was 30 μL. The retention time of CCG-211790 was 4.9 min. The method detection limit was 0.02 mg/L. Calibration curves were established giving a correlation coefficient >0.9900. The procedure to determine solubility in water with presence of SDS is based on the Paddle Method as described in the U.S. Pharmacopeia <711> on the in vitro dissolution tests with minor revision. To determine the saturation solubility in water containing SDS, CCG-211790 bulk powder was added in excess (around 5 mg of CCG-211790) to 10 mL of SDS solutions with various concentrations (0.5, 1.0 or 2.0% w/v). After incubation for 24–48 h in a shaking incubator at 37°C and 200 rpm to reach saturation status, aliquot (2 mL) of the incubated sample was filtered through a 0.22 μm Millipore filter (Millipore Corp., Billerica, MA, USA). Solutions passing through the filter were collected (0.5 mL) and were diluted 2-fold with acetonitrile. CCG-211790 concentration in SDS solutions was determined by HPLC analysis.

S. aureus NRS384 strain = assay: Biofilm assay (96-well microtiter plate, crystal violet staining); type: cell-based, Staphylococcus aureus; settings: for Inhibition of biofilm formation (vs treated with DMSO %): NRS384, single replicates
Protocol: Methicillin-resistant Staphylococcus aureus (MRSA) USA300 strain NRS384 (Strain USA300-0114, NR-46070), was provided by the Network on Antimicrobial Resistance in Staphylococcus aureus (NARSA) for distribution by BEI Resources, NIAID, NIH. The NRS384 strain was grown in Todd-Hewitt broth containing 0.2% yeast extract (THY) (Difco, Detroit, MI, USA). The medium for growth of static biofilms was THY with 0.5% glucose. All bacterial cultures were incubated at 37°C.
The biofilm assay was performed using 96-well polystyrene flat-bottom microtiter plate as described previously. Overnight cultures of S. aureus were diluted 1:200 with fresh THY medium containing 0.5% glucose. […] Non-adherent bacteria were washed away by PBS three times. Biofilms attached to microtiter plates were stained by crystal violet solution (Sigma-Aldrich, St. Louis, MO, USA) for 15 min. Excess stain was removed by washing with PBS. The crystal violet attached to biofilm samples was dissolved with ethanol. The absorbance at 595 nm was measured using Spectrostar Nano spectrophotometer (BMG Labtech, Ortenberg, Germany) as the value of biofilm formation. Percentage inhibition of sample treated with CCG-211790 was calculated against the mean of samples treated with DMSO. […] IC50 (the half maximal inhibitory concentration) was estimated.
Statistical analysis of the results was performed using a two-sided Student’s t-test. Dose Response fitting function in Origin was used to calculate the IC50. The IC50 was calculated by plotting the inhibition percentage (y) versus logarithm of dose (x), and fitting the data using the equation y=A1+A2−A1/1+10^(Logx0−x)p . IC50 was calculated as 10^logx0 . A1 stands for bottom asymptote, A2 stands for top asymptote and p is the hill slope (Origin 7.0, OriginLab Corporation, Northampton, MA, USA).

[2] = 0.5% (w/v) SDS solution, 0.5% (w/v) SDS
[3] = 1.0% (w/v) SDS solution, 1.0% (w/v) SDS
[4] = 2.0% (w/v) SDS solution, 2.0% (w/v) SDS

With `COc1ccc2c(c1)-c1nc(SCC(F)(F)F)n(C)c(=O)c1C(C)(C)C2` [CCG-211790, 9-Methoxy-3,5,5-trimethyl-2-((2,2,2-trifluoroethyl)thio)-5,6-dihydrobenzo[h]quinazolin-4(3H)-one] the “solubility class according to the definition of US Pharmacopeia” value (Solubility in water; solubility less than 100 μg/mL) was “practically insoluble”, the solubility at 20 h (Solubility in water; thermodynamic from solid, room temperature, 20 h, HPLC) was 0.038 ± 0.01 µg/mL (≈ 0.0988 µM) and the solubility at 24 h [1, 2] was 32.9 µg/mL (≈ 85.6 µM). For the same compound, the solubility at 48 h [1, 2] was 26.8 µg/mL (≈ 69.7 µM), the solubility [1, 2] was 29.9 ± 4.3 µg/mL (≈ 77.8 µM) and the solubility at 24 h [1, 3] was 68.5 µg/mL (≈ 178 µM). For the same compound, the solubility at 48 h [1, 3] was 63.8 µg/mL (≈ 166 µM), the solubility [1, 3] was 66.1 ± 3.3 µg/mL (≈ 172 µM) and the solubility at 24 h [1, 4] was 161 µg/mL (≈ 420 µM). The solubility at 48 h [1, 4] was 150 µg/mL (≈ 389 µM), the solubility [1, 4] was 156 ± 8.3 µg/mL (≈ 405 µM) and the “Inhibition of biofilm formation (vs treated with DMSO %)” value (“Inhibition … (vs treated with DMSO %)” below) (S. aureus NRS384 strain; 0.39 µM) was 3.94% and -13.46% and 12.53% and 16.63% and 8.53% and 4.38% and 18.40% and 26.22% and 15.26%. For the same compound, the “Inhibition … (vs treated with DMSO %)” value (S. aureus NRS384 strain; 0.78 µM) was 8.82% and 2.09% and 10.90% and 24.07% and 16.41% and 12.91% and 26.42% and 26.03% and 21.14%, the “Inhibition … (vs treated with DMSO %)” value (S. aureus NRS384 strain; 1.56 µM) was 29.00% and 47.10% and 40.37% and 45.73% and 49.67% and 47.05% and 51.47% and 53.42% and 52.45% and the “Inhibition … (vs treated with DMSO %)” value (S. aureus NRS384 strain; 3.13 µM) was 41.76% and 55.22% and 48.72% and 60.18% and 56.46% and 59.74% and 54.01% and 55.58% and 57.14%. The “Inhibition … (vs treated with DMSO %)” value (S. aureus NRS384 strain; 6.25 µM) was 62.41% and 64.27% and 61.48% and 70.02% and 63.24% and 70.24% and 69.08% and 70.25% and 66.93%, the “Inhibition … (vs treated with DMSO %)” value (S. aureus NRS384 strain; 12.50 µM) was 65.20% and 63.57% and 64.97% and 75.93% and 70.24% and 70.02% and 75.73% and 75.34% and 73.19% and the “Inhibition … (vs treated with DMSO %)” value (S. aureus NRS384 strain; 25.00 µM) was 70.30% and 69.84% and 74.25% and 79.43% and 78.99% and 75.05% and 76.52% and 81.02% and 80.63%. For the same compound, the “Inhibition … (vs treated with DMSO %)” value (S. aureus NRS384 strain; 50.00 µM) was 79.58% and 79.12% and 79.35% and 82.49% and 82.28% (2×) and 80.23% and 79.06% and 83.76% and the IC50 (S. aureus NRS384 strain; Staphylococcus aureus, MRSA / NRS 384 / USA300, S. aureus NRS384 (MRSA USA300), overnight 37°C, crystal violet, read-out: IC50 of the inhibition of biofilm formation) was 1.28 ± 0.45 µM.
